These results are taken from patent US9927424B2, “Assays for identifying compounds that modulate bitter taste” (Chromocell Corporation, priority 2013, dated 2018).

Holding throughout (assay type): cell-based
Assay [1] has as its target T1, TAS2R13 (Homo sapiens, UniProt Q9NYV9).
T1 construct: expressed in transfected cells
T1 sequence (Q9NYV9 1-303): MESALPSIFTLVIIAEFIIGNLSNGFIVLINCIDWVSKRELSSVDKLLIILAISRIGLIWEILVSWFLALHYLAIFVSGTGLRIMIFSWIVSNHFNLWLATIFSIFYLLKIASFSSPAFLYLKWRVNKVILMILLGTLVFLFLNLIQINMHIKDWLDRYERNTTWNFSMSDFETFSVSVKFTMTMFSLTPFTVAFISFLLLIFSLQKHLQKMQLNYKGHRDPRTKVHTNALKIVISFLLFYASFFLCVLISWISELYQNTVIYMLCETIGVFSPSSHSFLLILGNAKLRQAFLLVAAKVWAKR
Put plainly: Calcium fluorescence functional assay, TAS2R13 cell line with mouse Gα15. The conditions noted are these: for TAS2R13 bitter receptor activity (functional response): 20 mM tastant, change in intracellular calcium; for EC50: approximately, increasing concentrations of tastant. As for the experimental part:
(§1) A panel of cell lines expressing eight specific bitter taste receptors, a subset of the panel of twenty-five bitter receptors described in International Patent Application Publication WO 2010/088633 (see, e.g., Example 26), was used for the purpose of these analyses. Accordingly, each cell line of the panel expressed a human bitter taste receptor and mouse Gα15 signaling protein.
(§2) Each of the Examples below utilized the following functional assay: • Day 1: Stable cell lines were seeded onto black wall/clear bottom 96-well, plates (e.g., Corning, 3904). Approximately 40K cells were added per well and incubated at 37° C., 5% CO2 overnight in cell growth media (DMEM (Sigma, D5796) supplemented with 10% Fetal Bovine Serum (Sigma, 5178), 2 mM Glutamine (Sigma, G7513)). • Day 2: Growth media was discarded and cells were incubated at 37° C., 5% CO2 for 60 minutes in 100 ul of load solution containing 1× Ca-3 dye (Molecular Devices, R8090), 1% DMSO in buffer containing 130 mM NaCl, 2 mM CaCl2, 5 mM KCl, 1.2 mM MgCl2, 10 mM HEPES and 10 mM Glucose (pH 7.0). Probenecid was not included in the load solution. • Functional assay: After dye loading, cell plates were placed in a fluorescent plate reader (e.g., FDSS6000 (Hamamatsu, Japan)) and receptor stimulation was measured by adding 50 ul of 3× concentrated ligand/agonist stock. Fluorescence was monitored continuously for 10 s before agonist addition and for 100-250 s after stimulation with agonist.
(§3) Receptor Activation is defined as follows: • % Activation=[((Maximum signal fluorescence−Minimum signal fluorescence)−(Maximum control fluorescence−Minimum control fluorescence))/(Maximum buffer fluorescence−Minimum buffer fluorescence)]*100 • Functional Response=[(Maximum signal fluorescence−Minimum signal fluorescence)−(Maximum control fluorescence−Minimum control fluorescence)] • Signal fluorescence: refers to the change in fluorescence seen with addition of ligand • Control fluorescence: refers to the change in fluorescence seen with addition of buffer (negative control) • Calcium signals from ligand and control were normalized to the basal fluorescence of the cells prior to the stimulation.
(§4) A concentration analysis was performed and EC50 values were calculated by nonlinear regression using the formula: Y=Bottom+(Top−Bottom)/(1+10^((Log EC50−X)*Hill Slope)), X=log of dose or concentration, Y=Response (increasing as X increases), Top=maximum signal, Bottom=minimum signal. EC50 (half maximal effective concentration) refers to the molar concentration of the agonist which produces 50% of the maximum possible effective response from that agonist.
For orientation: Calcium flux is commonly read through the fluorescence of an indicator in the cells.

Assay [2] deals with T2, TAS2R4 (Homo sapiens, UniProt Q9NYW5).
T2 construct: expressed in transfected cells
T2 sequence (Q9NYW5 1-299): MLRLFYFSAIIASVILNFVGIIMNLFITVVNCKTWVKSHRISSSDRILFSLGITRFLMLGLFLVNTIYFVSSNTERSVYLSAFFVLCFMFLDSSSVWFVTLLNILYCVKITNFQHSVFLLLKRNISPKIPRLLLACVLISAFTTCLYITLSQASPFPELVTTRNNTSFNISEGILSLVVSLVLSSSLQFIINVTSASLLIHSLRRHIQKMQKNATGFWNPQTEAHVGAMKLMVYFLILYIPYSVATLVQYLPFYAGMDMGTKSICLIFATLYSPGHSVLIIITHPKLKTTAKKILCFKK
Put plainly: Calcium fluorescence functional assay, TAS2R4 cell line with mouse Gα15. Conditions: for TAS2R4 bitter receptor activity (functional response): 20 mM tastant, change in intracellular calcium; for EC50: approximately, increasing concentrations of tastant. On the procedure:
as §1, §2, §3, §4

In assay [3] the target is T3, TAS2R9 (Homo sapiens, UniProt Q9NYW1).
T3 construct: expressed in transfected cells
T3 sequence (Q9NYW1 1-312): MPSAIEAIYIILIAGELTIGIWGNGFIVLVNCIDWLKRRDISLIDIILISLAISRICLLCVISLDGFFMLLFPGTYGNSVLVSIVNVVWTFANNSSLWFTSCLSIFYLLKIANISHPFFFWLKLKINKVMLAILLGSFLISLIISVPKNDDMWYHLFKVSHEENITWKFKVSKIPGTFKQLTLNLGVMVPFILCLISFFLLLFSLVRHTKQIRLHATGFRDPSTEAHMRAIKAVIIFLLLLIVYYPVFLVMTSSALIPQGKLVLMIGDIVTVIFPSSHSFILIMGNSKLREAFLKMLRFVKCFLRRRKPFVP
Put plainly: Calcium fluorescence functional assay, TAS2R9 cell line with mouse Gα15. The conditions noted are these: for TAS2R9 bitter receptor activity (functional response): 20 mM tastant, change in intracellular calcium; for EC50: approximately, increasing concentrations of tastant. As for the experimental part:
as §1, §2, §3, §4

For assay [4], the target named is T4, TAS2R60 (Homo sapiens, UniProt P59551).
T4 construct: expressed in transfected cells
T4 sequence (P59551 1-318): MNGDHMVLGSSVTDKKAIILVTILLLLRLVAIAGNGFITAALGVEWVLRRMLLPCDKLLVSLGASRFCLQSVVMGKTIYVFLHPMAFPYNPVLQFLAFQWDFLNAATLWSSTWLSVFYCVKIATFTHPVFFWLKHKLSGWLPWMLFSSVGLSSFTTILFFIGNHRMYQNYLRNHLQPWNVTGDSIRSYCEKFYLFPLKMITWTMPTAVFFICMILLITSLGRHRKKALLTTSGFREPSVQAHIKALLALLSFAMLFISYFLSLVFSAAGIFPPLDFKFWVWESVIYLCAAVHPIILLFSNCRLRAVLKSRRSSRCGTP
Put plainly: Calcium fluorescence functional assay, TAS2R60 cell line with mouse Gα15. Conditions: for TAS2R60 bitter receptor activity (functional response): 20 mM tastant, change in intracellular calcium, data for potassium nitrate and potassium phosphate (dibasic) preliminary; for EC50: approximately, increasing concentrations of tastant. On the procedure:
Accordingly, each cell line of the panel expressed a human bitter taste receptor and mouse Gα15 signaling protein.
Probenecid was not included in the load solution. • Functional assay: After dye loading, cell plates were placed in a fluorescent plate reader (e.g., FDSS6000 (Hamamatsu, Japan)) and receptor stimulation was measured by adding 50 ul of 3× concentrated ligand/agonist stock. Fluorescence was monitored continuously for 10 s before agonist addition and for 100-250 s after stimulation with agonist.
as §3
A concentration analysis was performed and EC50 values were calculated by nonlinear regression using the formula: Y=Bottom+(Top−Bottom)/(1+10^((Log EC50−X)*Hill Slope)), X=log of dose or concentration, Y=Response (increasing as X increases), Top=maximum signal, Bottom=minimum signal.

For `CC(=O)[O-].[K+]` [potassium acetate], in assay [1], the “TAS2R13 bitter receptor activity (functional response)” value (“TAS2R13 bitter receptor activity” for short) is listed as “induced” and the EC50 (usually the concentration giving half of the maximal effect) was in the range of 5 to 10 mM. Further, in assay [2], the “TAS2R4 bitter receptor activity (functional response)” value (“TAS2R4 bitter receptor activity” for short) was “induced” and the EC50 was 5 to 10 mM. For the same molecule, in assay [3], the “TAS2R9 bitter receptor activity (functional response)” value (“TAS2R9 bitter receptor activity” below) is “induced” and the EC50 lay within 5 to 10 mM. Besides, in assay [4], the “TAS2R60 bitter receptor activity (functional response)” value (shortened to “TAS2R60 bitter receptor activity”) is recorded as “induced” and the EC50 was 5 to 10 mM.
For `O=C([O-])c1ccccc1.[K+]` [potassium benzoate], in assay [1], the “TAS2R13 bitter receptor activity” value is recorded as “induced” and the EC50 fell in the range of 5 to 10 mM. Also, in assay [2], the “TAS2R4 bitter receptor activity” value was “induced” and the EC50 was in the range of 5 to 10 mM. Besides, in assay [3], the “TAS2R9 bitter receptor activity” value is “induced” and the 50% effective concentration (EC50) lay within 5 to 10 mM. Besides, in assay [4], the “TAS2R60 bitter receptor activity” value is listed as “induced” and the EC50 fell in the range of 5 to 10 mM.
As for `O=C([O-])[C@H](O)[C@@H](O)[C@H](O)[C@H](O)CO.[K+]` [potassium gluconate], the “TAS2R13 bitter receptor activity” value in assay [1] is listed as “induced”. Besides, the “TAS2R4 bitter receptor activity” value in assay [2] was “induced”. Further, in assay [3], the “TAS2R9 bitter receptor activity” value is “induced”. Also, in assay [4], the “TAS2R60 bitter receptor activity” value is given as “did not induce”.
For the molecule `O=[N+]([O-])[O-].[K+]` [potassium nitrate], the “TAS2R13 bitter receptor activity” value in assay [1] was “induced”. Moreover, the “TAS2R4 bitter receptor activity” value in assay [2] is on record as “induced”. Besides, the “TAS2R9 bitter receptor activity” value in assay [3] is listed as “induced”. For the same molecule, in assay [4], the “TAS2R60 bitter receptor activity” value was “induced”.
With `O=P([O-])([O-])O.[K+].[K+]` [potassium phosphate (dibasic)], the “TAS2R13 bitter receptor activity” value in assay [1] is on record as “induced”. For the same molecule, the “TAS2R4 bitter receptor activity” value in assay [2] was “induced”. The “TAS2R9 bitter receptor activity” value in assay [3] is recorded as “induced”. Moreover, in assay [4], the “TAS2R60 bitter receptor activity” value is “induced”.
As to `C/C=C/C=C/C(=O)[O-].[K+]` [potassium sorbate], the “TAS2R13 bitter receptor activity” value in assay [1] is “induced”. In addition, the “TAS2R4 bitter receptor activity” value in assay [2] is “induced”. For the same molecule, the “TAS2R9 bitter receptor activity” value in assay [3] is reported as “induced”. Besides, the “TAS2R60 bitter receptor activity” value in assay [4] is given as “induced”.
As to `O=S(=O)([O-])[O-].[K+].[K+]` [potassium sulfate], the “TAS2R13 bitter receptor activity” value in assay [1] is listed as “induced”. The “TAS2R4 bitter receptor activity” value in assay [2] was “induced”. The “TAS2R9 bitter receptor activity” value in assay [3] is “induced”. Besides, the “TAS2R60 bitter receptor activity” value in assay [4] was “induced”.
